In patent US20090227607A1, “DEAZAPURINES USEFUL AS INHIBITORS OF JANUS KINASES” (priority 2006, published 2009):

Experiments:
JAK-2 enzyme = JAK-2 enzyme (Homo sapiens, UniProt O60674); test: JAK2 Inhibition Assay; type: biochemical; conditions: 15 μM poly(Glu)4Tyr, 12 μM ATP, 25° C.
Method in brief: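 JAK2 kinase in HEPES pH 7.4 buffer with MgCl2, DTT, NaCl and BSA; final 15 μM poly(Glu)4Tyr and 12 μM [33P]ATP. Enzyme added to start, 20 min at 25 °C, TCA stop, filter capture and scintillation count of 33P incorporation; Ki values.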

JAK3 = target: T1, JAK3 (Homo sapiens, UniProt P52333); test: JAK3 Inhibition Assay; type: biochemical; conditions: 1 μM poly(Glu)4Tyr, 5 μM ATP, 1 nM JAK3, 25° C.; read-out: JAK3 enzyme inhibition data (Ki)
T1 sequence (P52333 1-1124): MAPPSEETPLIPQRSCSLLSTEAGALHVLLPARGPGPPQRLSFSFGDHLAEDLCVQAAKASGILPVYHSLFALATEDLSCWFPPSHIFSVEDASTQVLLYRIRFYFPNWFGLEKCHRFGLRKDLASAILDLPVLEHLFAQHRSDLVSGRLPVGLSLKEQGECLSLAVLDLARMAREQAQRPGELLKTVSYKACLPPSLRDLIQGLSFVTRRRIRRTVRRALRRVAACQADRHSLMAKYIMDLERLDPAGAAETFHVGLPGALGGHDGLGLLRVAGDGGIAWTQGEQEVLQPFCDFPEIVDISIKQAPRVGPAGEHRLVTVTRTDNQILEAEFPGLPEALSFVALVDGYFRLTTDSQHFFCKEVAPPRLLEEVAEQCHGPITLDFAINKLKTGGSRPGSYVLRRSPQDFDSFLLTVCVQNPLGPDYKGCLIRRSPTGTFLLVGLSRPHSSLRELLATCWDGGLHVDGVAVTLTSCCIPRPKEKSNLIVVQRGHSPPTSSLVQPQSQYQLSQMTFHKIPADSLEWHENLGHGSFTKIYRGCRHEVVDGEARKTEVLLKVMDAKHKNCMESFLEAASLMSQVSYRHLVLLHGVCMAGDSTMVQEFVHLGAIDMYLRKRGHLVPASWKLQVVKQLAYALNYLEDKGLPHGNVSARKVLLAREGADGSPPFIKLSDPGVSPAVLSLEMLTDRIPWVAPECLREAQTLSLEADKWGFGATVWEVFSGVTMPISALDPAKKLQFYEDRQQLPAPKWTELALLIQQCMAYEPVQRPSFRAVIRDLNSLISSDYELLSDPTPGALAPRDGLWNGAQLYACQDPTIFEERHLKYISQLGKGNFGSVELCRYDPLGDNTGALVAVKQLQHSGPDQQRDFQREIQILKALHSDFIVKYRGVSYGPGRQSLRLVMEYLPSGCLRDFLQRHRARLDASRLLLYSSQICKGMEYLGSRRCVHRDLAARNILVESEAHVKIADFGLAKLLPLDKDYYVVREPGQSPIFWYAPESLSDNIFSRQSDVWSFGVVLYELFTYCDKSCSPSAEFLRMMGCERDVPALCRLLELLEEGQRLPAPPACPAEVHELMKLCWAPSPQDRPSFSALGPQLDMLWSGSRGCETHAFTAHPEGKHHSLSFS
Method in brief: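 Radiometric JAK3 (1 nM) reaction with 5 μM [33P]ATP and 1 μM poly(Glu)4Tyr in HEPES pH 7.4 buffer, run for 20 min at 25 °C. Reactions were stopped with TCA and filter-captured, and 33P incorporation was counted; values reported as Ki.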

Sequence of JAK-2 enzyme (O60674 whole entry, species assumed): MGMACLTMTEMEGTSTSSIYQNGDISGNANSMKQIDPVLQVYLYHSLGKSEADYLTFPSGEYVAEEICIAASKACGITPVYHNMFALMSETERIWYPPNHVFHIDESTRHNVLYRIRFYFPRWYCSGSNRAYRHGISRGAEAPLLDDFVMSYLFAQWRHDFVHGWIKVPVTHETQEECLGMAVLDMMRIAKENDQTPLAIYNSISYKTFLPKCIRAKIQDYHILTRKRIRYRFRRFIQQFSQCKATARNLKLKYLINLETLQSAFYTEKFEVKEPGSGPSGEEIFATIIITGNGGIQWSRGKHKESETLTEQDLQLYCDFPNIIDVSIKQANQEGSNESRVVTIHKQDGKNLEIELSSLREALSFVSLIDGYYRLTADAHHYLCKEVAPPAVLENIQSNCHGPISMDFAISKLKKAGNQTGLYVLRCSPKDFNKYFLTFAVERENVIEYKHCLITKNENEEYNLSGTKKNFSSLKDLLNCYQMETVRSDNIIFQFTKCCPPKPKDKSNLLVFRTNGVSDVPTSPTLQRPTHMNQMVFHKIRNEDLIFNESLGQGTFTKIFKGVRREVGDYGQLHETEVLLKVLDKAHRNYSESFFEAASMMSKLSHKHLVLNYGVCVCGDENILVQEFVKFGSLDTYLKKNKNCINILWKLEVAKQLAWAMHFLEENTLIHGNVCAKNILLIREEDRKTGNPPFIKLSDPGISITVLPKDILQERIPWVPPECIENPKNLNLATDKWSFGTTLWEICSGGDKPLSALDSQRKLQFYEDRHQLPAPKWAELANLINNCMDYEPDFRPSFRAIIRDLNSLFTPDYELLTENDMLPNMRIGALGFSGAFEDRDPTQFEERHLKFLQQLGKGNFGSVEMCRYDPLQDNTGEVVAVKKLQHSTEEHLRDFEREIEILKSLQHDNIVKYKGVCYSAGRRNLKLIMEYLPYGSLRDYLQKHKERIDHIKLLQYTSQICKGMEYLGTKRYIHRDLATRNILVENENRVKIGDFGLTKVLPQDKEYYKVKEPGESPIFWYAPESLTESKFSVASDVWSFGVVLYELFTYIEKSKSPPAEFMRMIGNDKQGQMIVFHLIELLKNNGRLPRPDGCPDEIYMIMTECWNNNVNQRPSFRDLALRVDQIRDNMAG

Compound	Ki (JAK-2 enzyme) [nM]	Ki (JAK3) [nM]
CC(C)CC(=O)N(C)c1nc(-c2ncnc3[nH]ccc23)cs1 [Compound 105]	< 100	< 100
c1nc(-c2cn[nH]c2)c2cc[nH]c2n1 [Compound 5]	100 to 500	100 to 500
Cn1cc(-c2ncnc3[nH]ccc23)cn1 [Compound 3]	100 to 500	100 to 500
CC(C)Cn1cc(-c2ncnc3[nH]cc(Cl)c23)cn1 [Compound 166]	< 100	100 to 500
CCC(CO)NC(=O)C(C)n1cc(-c2ncnc3[nH]ccc23)cn1 (centres unmarked) [Compound 82]	100 to 500	100 to 500
CS(=O)(=O)N1CCC(C(=O)Nc2nc(-c3ncnc4[nH]ccc34)cs2)CC1 [Compound 179]	< 100	< 100
CN1CC(C(=O)Nc2nc(-c3ncnc4[nH]ccc34)cs2)CC1=O (centres unmarked) [Compound 172]	< 100	100 to 500
CCCN(CC(F)(F)F)C(=O)c1ccc(-c2ncnc3[nH]ccc23)o1 [Compound 121]	< 100	< 100
N#CCN(Cc1ccc(F)cc1)C(=O)c1cc(-c2ncnc3[nH]ccc23)c[nH]1 [Compound 112]	< 100	< 100
CCCN(CC)C(=O)c1cc(-c2ncnc3[nH]cc(C)c23)c[nH]1 [Compound 206]	< 100	100 to 500
CC(C)CN(CCC#N)C(=O)c1ccc(-c2ncnc3[nH]ccc23)o1 [Compound 192]	< 100	< 100
CCCN(CCC#N)C(=O)c1cc(-c2ncnc3[nH]ccc23)c[nH]1 [Compound 21]	< 100	< 100
O=C(c1cc(-c2ncnc3[nH]ccc23)c[nH]1)N1CCCC(O)C1 (centres unmarked) [Compound 51]	100 to 500	500 to 5000
COC(=O)C1CC=CCC1C(=O)Nc1nc(-c2ncnc3[nH]ccc23)cs1 (centres unmarked) [Compound 149]	< 100	100 to 500
CC(C)OCCNC(=O)C(C)n1cc(-c2ncnc3[nH]ccc23)cn1 (centres unmarked) [Compound 85]	500 to 5000	500 to 5000
COCCN(C)C(=O)c1cc(-c2ncnc3[nH]cc(C)c23)c[nH]1 [Compound 200]	100 to 500	500 to 5000
COC1CCC(C(=O)Nc2nc(-c3ncnc4[nH]ccc34)cs2)CC1 (centres unmarked) [Compound 117]	< 100	100 to 500
CCN(Cc1ccccc1)C(=O)c1cc(-c2ncnc3[nH]cc(Cl)c23)c[nH]1 [Compound 199]	< 100	< 100
COC(C)C(=O)Nc1nc(-c2ncnc3[nH]ccc23)cs1 (centres unmarked) [Compound 97]	< 100	100 to 500
N#CCN(Cc1cccc(Cl)c1)C(=O)c1cc(-c2ncnc3[nH]ccc23)c[nH]1 [Compound 113]	< 100	< 100
O=C(c1cc(-c2ncnc3[nH]ccc23)c[nH]1)N1CCC(O)C1 (centres unmarked) [Compound 45]	500 to 5000	500 to 5000
CCCN(C(=O)CC(C)C)c1nc(-c2ncnc3[nH]ccc23)cs1 [Compound 103, 3-Methyl-N-propyl-N-[4-(7H-pyrrolo[2,3-d]pyrimidin-4-yl)-thiazol-2-yl]-butyramide]	< 100	< 100
O=C(CC(F)(F)F)Nc1nc(-c2ncnc3[nH]ccc23)cs1 [Compound 64]	< 100	< 100
CC(C)N(CCC(F)(F)F)C(=O)c1cc(-c2ncnc3[nH]ccc23)co1 [Compound 247]	100 to 500	500 to 5000
CC(CC(F)(F)F)C(=O)Nc1nc(-c2ncnc3[nH]ccc23)cs1 (centres unmarked) [Compound 102]	< 100	< 100
Cn1cc(-c2ncnc3[nH]ccc23)cc1C(=O)N(CC1CC1)CC(F)(F)F [Compound 228]	< 100	< 100

Compound	Ki (JAK-2 enzyme) [nM]	Ki (JAK3) [nM]
C=CCN(C(=O)c1ccc(-c2ncnc3[nH]ccc23)o1)[C@H](C)c1ccccc1 [Compound 220]	< 100	100 to 500
CCCN(CC1CC1)C(=O)c1cc(-c2ncnc3[nH]ccc23)c[nH]1 [Compound 20]	< 100	< 100
CCCCCN(C)C(=O)c1cc(-c2ncnc3[nH]cc(C)c23)c[nH]1 [Compound 205]	< 100	100 to 500
CC#CCN(C(=O)c1cc(-c2ncnc3[nH]ccc23)c[nH]1)C1CCCCC1 [Compound 190]	100 to 500	500 to 5000
N#CCCN(CCC(F)(F)F)C(=O)c1cc(-c2ncnc3[nH]ccc23)co1 [Compound 230, N-(2-cyanoethyl)-4-(7H-pyrrolo[2,3-d]pyrimidin-4-yl)-N-(3,3,3-trifluoropropyl)furan-2-carboxamide]	< 100	100 to 500
CC(C)(C)OC(=O)N1CCCC(C(=O)Nc2nc(-c3ncnc4[nH]ccc34)cs2)C1 (centres unmarked) [Compound 177]	100 to 500	100 to 500
N#CCCN(CC1CC1)C(=O)c1ccc(-c2ncnc3[nH]ccc23)o1 [Compound 125]	< 100	< 100
CC(C)(C)OC(=O)N1CCC(C(=O)Nc2nc(-c3ncnc4[nH]ccc34)cs2)CC1 [Compound 178]	100 to 500	100 to 500
CN(CCC#N)C(=O)c1ccc(-c2ncnc3[nH]ccc23)o1 [Compound 119]	< 100	< 100
CCN(Cc1ccncc1)C(=O)c1cc(-c2ncnc3[nH]ccc23)c[nH]1 [Compound 48]	< 100	< 100
CCCn1cc(-c2ncnc3[nH]cc(C)c23)cn1 [Compound 161]	100 to 500	100 to 500
CC(C)CC(=O)N(CCCC(F)(F)F)c1nc(-c2ncnc3[nH]ccc23)cs1 [Compound 129]	< 100	100 to 500
CC(C(=O)NC1CC1)n1cc(-c2ncnc3[nH]ccc23)cn1 (centres unmarked) [Compound 73]	100 to 500	100 to 500
O=C(Nc1nc(-c2ncnc3[nH]ccc23)cs1)C(O)C(F)(F)F (centres unmarked) [Compound 100]	< 100	< 100
CCN(CCC#N)C(=O)c1cc(-c2ncnc3[nH]ccc23)cn1C [Compound 237]	< 100	< 100
CCCn1cc(-c2ncnc3[nH]cc(Cl)c23)cn1 [Compound 165]	< 100	100 to 500
O=C(Nc1nc(-c2ncnc3[nH]ccc23)cs1)C1CCCNC1 (centres unmarked) [Compound 176]	< 100	< 100
CCC(C)n1cc(-c2ncnc3[nH]ccc23)cn1 (centres unmarked) [Compound 35]	< 100	< 100
O=C(Nc1nc(-c2ncnc3[nH]ccc23)cs1)C1CC=CC1 [Compound 59]	< 100	< 100
CC(C)N(CCC(F)(F)F)C(=O)c1ccc(-c2ncnc3[nH]ccc23)o1 [Compound 210]	< 100	< 100
CC(C)CN(C)C(=O)c1cc(-c2ncnc3[nH]ccc23)c[nH]1 [Compound 27]	< 100	100 to 500
C=CCN(C(=O)c1cc(-c2ncnc3[nH]ccc23)c[nH]1)C(C)c1ccccc1 (centres unmarked) [Compound 114]	< 100	< 100
CCCCN(CC)C(=O)c1cc(-c2ncnc3[nH]cc(Cl)c23)c[nH]1 [Compound 198]	< 100	< 100
CCCCC(CC)n1cc(-c2ncnc3[nH]ccc23)cn1 (centres unmarked) [Compound 92]	< 100	< 100
O=C(c1cc(-c2ncnc3[nH]ccc23)c[nH]1)N(CC1CCCC1)CC(F)(F)F [Compound 186]	< 100	100 to 500
Cc1c[nH]c2ncnc(-c3cnn(CC(C)C)c3)c12 [Compound 162]	< 100	100 to 500
